ChEMBL document CHEMBL5724709, “EUbOPEN Chemogenomics Library - IncuCyte” (2024)
Peptide text beside a SMILES is read from it. * marks the point of attachment. Boc = CC(C)(C)OC(=O)*

Columns and labels:
Type in all cases: toxicity, cell-based
Fibroblast = test: Incucyte cell viability with human fibroblast; conditions: 24 h, 10 µM, compound concentration 10 uM
U2OS = test: Incucyte cell viability with U2OS; conditions: human, 24 h, 10 µM, compound concentration 10 uM
HEK-293T = test: Incucyte cell viability with HEK293T; conditions: human, 24 h, 10 µM, compound concentration 10 uM
Further: unitless GR value; below 1 slowed growth and below 0 cell loss.

SMILES | Growth Rate (Fibroblast; replicate number 1) | Growth Rate (Fibroblast; replicate number 2) | Growth Rate (U2OS; replicate number 1) | Growth Rate (U2OS; replicate number 2) | Growth Rate (HEK-293T; replicate number 1) | Growth Rate (HEK-293T; replicate number 2)
COc1cc2c(NC3CCN(CC4CCCCC4)CC3)nc(N3CCCN(C(C)C)CC3)nc2cc1OCCCN1CCCCC1 | -0.44 | -0.13 | -0.52 | -0.15 | -0.58 | -0.42
CNC[C@@H](O)COc1ccc(Cl)c(-c2nc(-c3c(C)noc3C)c(C)c(N3CC4(CCN(C(=O)OC)CC4)C3)n2)c1 | 0.24 | 1 | 1 | – | 0.46 | 0.73
COc1nc(N)nc(Nc2cc(S(N)(=O)=O)ccc2N[C@@H](c2cccc3c2OC(F)(F)O3)c2ncccc2Cl)n1 | 1 | – | 1 | 0.89 | 0.97 | 1
CC(C)[C@H](NC(=O)OCc1ccccc1)C(=O)NC(CC(=O)O)C(=O)CF (some centres undefined) | 0.54 | 1 | 1 | 0.69 | 1 | 0.94
CCOCC1(COCC)CCC(c2n[nH]cc2CN(C)CCNC)CC1.Cl | 1 | 0.32 | 0.95 | – | 0.61 | 0.63
CC(C)[C@H](NC(=O)[C@H](CCC(=O)O)NC(=O)[C@H](C)NC(=O)OC(C)(C)C)C(=O)N[C@H](C=O)CC(=O)O.O=C(O)C(F)(F)F (Boc-AEVD-aldehyde) | 0.24 | 1 | 1 | – | 0.66 | 0.93
N[C@@H](CC(=O)N1CCN(C(c2ccc(F)cc2)c2ccc(F)cc2)CC1)C(=O)N1Cc2ccccc2C1 | 1 | – | 1 | – | 0.66 | 0.87
[2H]C([2H])([2H])C1(C([2H])([2H])[2H])Cn2nc(-c3ccc(F)cn3)c(-c3ccnc4[nH]ncc34)c2CO1 | 0.73 | 1 | 0.32 | 0.8 | 0.81 | 0.89
CC(C)(F)C[C@H](N[C@@H](c1ccc(-c2ccc(S(C)(=O)=O)cc2)cc1)C(F)(F)F)C(=O)NC1(C#N)CC1 [ODANACATIB] | 0.39 | 1 | 0.65 | 1 | 0.9 | 0.87
Nc1nc2cc(CC[C@H]3C[C@@H](n4ccc5c(N)ncnc54)[C@H](O)[C@@H]3O)ccc2cc1Br [ONAMETOSTAT] | 0.43 | 0.06 | 0.19 | 1 | -0.14 | -0.01
O=C(Nc1ccc2[nH]nc(-c3ccncc3)c2c1)[C@@H]1CCN(CC(=O)N2CCN(c3ccc(-c4ncccn4)cc3)CC2)C1 | 1 | – | 0.65 | 1 | -0.08 | -0.01
CC(C)NCC(O)COC(Cn1c2ccccc2c2ccccc21)Cn1c2ccccc2c2ccccc21 (centres undefined) | 1 | 0.03 | -0.53 | 1 | 1 | –
CC(C)n1nc(-c2cc3cc(O)ccc3[nH]2)c2c(N)ncnc21 | 0.59 | 0.98 | -0.49 | -0.01 | -0.17 | -0.09
O=C(c1ccc2c(ccn2-c2ccc(F)cc2)c1)N1CC(N2CCN(C(=O)c3nccs3)CC2)C1 | 0.6 | 1 | 0.99 | 0.91 | 0.76 | 0.97
CN1CCc2c(n(Cc3ccc(C(=O)NO)cc3)c3ccccc23)C1 | 1 | 0.54 | 0.34 | 1 | 0.89 | 1
Cc1nc(Nc2ncc(C(=O)Nc3c(C)cccc3Cl)s2)cc(N2CCN(CCO)CC2)n1 [DASATINIB ANHYDROUS] | 1 | 0.23 | -0.47 | -0.3 | -0.16 | 0.04
CSc1cccc(Nc2ncc3cc(-c4c(Cl)cccc4Cl)c(=O)n(C)c3n2)c1 | -0.25 | -0.52 | -0.64 | -0.15 | -0.41 | 0.24
CC(C)(CNC(=O)c1cccc(-c2noc(C(F)(F)F)n2)c1)c1coc(-c2ccccc2)n1 | 0.48 | 0.8 | 1 | – | 0.69 | 0.79
